According to PubChem BioAssay (NCI):
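Grown in 96-well plates, cells were treated for 48 hours with each compound at five concentrations. Insufficient inhibition: endpoint recorded as highest concentration tested. At the TGI there is no net growth.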

These compounds were tested on NCI-H23 lung (assay: NCI anticancer screen, dose series, 48 h).

First: Cc1cn(C2OC(CO[Si](C)(C)C(C)(C)C)/C(=C\C#N)C2O[Si](C)(C)C(C)(C)C)c(=O)[nH]c1=O (configuration not stated)
Second: CC(C)CCCC(C)[C@H]1CC[C@H]2n3c(nnc3-c3ccccc3)CCC[C@]12C (some centres not stated)
The TGI of the first is higher: over 100 µM for the first, 28.8 µM for the second.

Going from `C[C@]12CCC(O)CC1=CC[C@@H]1[C@@H]2CC[C@]2(C)C(O)[C@H](n3ccnc3)C[C@@H]12` (some centres not stated) to `OC1=C2c3ccccc3NC2Oc2cc(F)ccc21` (configuration not stated), the TGI falls from over 100 µM to 36 µM.

Work on `O=C(CC(O)(C(F)(F)F)C(F)(F)F)C(c1ccccc1)C(O)(C(F)(F)F)C(F)(F)F` (configuration not stated) yielded a TGI of over 100 µM.

These compounds were tested on NCI-H460 lung (assay: NCI anticancer screen, dose series, 48 h).

Going from `CCOc1cccc(C=Nc2ccccc2SSc2ccccc2N=Cc2cccc(OCC)c2O)c1O` to `COc1ccccc1C[C@@H]1OC2(C=CC(=O)CC2SC(=O)c2ccccc2)O[C@H]1Cc1ccccc1OC` (some centres not stated), the TGI falls from 20.1 µM to 7.87 µM (2.6-fold).

Compared with `C[N+]12CCCCC1C(COc1cccc3cccnc13)CCC2` (configuration not stated), `CC(C)CCCC(C)[C@H]1CC[C@H]2n3c(nnc3-c3ccccc3)CCC[C@]12C` (some centres not stated) is lower in TGI: over 100 µM for the first, 24.1 µM for the second.

`Cc1ccc(S(=O)(=O)NC(=O)NCc2ccc(S(N)(=O)=O)cc2)cc1` and `COc1ccc(NC(=S)Nc2cc(C)ccn2)cc1` cannot be ordered by TGI: over 100 µM for the first, over 100 µM for the second.

`NC(=O)NC1NC(=O)NC1=O` (configuration not stated) and `NC(CSS(=O)(=O)O)=NC1CC2CCC1C2` (configuration not stated) cannot be ordered by TGI: over 100 µM for the first, over 100 µM for the second.

First: CC[C@@]1(O)C(=O)OCc2c1cc1n(c2=O)Cc2c-1nc1ccccc1c2/C=N\NC(=O)C[n+]1ccccc1
Second: CC1=NN(c2cccc(S(=O)(=O)O)c2)C2(C1)C(Cl)C(=O)N2c1nc2ccccc2s1 (configuration not stated)
The TGI of the first is 2.7-fold lower: 9.75 µM for the first, 26.3 µM for the second.

`COc1ccc(CC2Cc3ccccc3CCN2)cc1OC` (configuration not stated) and `COc1cc2c(cc1OCCCNC(=O)c1cc3ccccc3[nH]1)N=C[C@@H]1CCCN1C2=O` cannot be ordered by TGI: over 50 µM for the first, over 100 µM for the second.

`OCC1OC(NC(=S)NCCC(F)(F)C(F)(F)C(F)(F)C(F)(F)C(F)(F)C(F)(F)F)C(O)C(O)C1O` (configuration not stated) and `O=C(CC(O)(C(F)(F)F)C(F)(F)F)C(c1ccccc1)C(O)(C(F)(F)F)C(F)(F)F` (configuration not stated) cannot be ordered by TGI: over 100 µM for the first, over 100 µM for the second.

`COC(=O)/C(C)=N/NC(=S)SC` and `CC1=CC[C@H](C[C@H](C#CCCCC2OCCO2)O[Si](C(C)C)(C(C)C)C(C)C)C(=O)CC1` cannot be ordered by TGI: over 100 µM for the first, over 100 µM for the second.

`Cc1sc2nc(N(C)C)oc(=O)c2c1C` and `Cc1cn(C2OC(CO[Si](C)(C)C(C)(C)C)/C(=C\C#N)C2O[Si](C)(C)C(C)(C)C)c(=O)[nH]c1=O` (configuration not stated) cannot be ordered by TGI: over 100 µM for the first, over 100 µM for the second.

`Cc1cccc(N/C(=C(/C(Cl)=C(Cl)Cl)[N+](=O)[O-])n2nnc3ccccc32)c1` and `OC1=C2c3ccccc3NC2Oc2cc(F)ccc21` (configuration not stated) are within 1.5-fold of each other in TGI: 45.1 µM for the first, 38.5 µM for the second.

First: CN1CCC23c4c5ccc(Oc6nnnn6-c6ccccc6)c4OC2c2[nH]c4ccccc4c2CC3(O)C1C5 (configuration not stated)
Second: C[C@]12CCC(O)CC1=CC[C@@H]1[C@@H]2CC[C@]2(C)C(O)[C@H](n3ccnc3)C[C@@H]12 (some centres not stated)
The TGI of the first is lower: 3.66 µM for the first, over 100 µM for the second.

What follows are compounds tested on OVCAR-3 ovarian (assay: NCI anticancer screen, dose series, 48 h).

Going from `CCOc1cccc(C=Nc2ccccc2SSc2ccccc2N=Cc2cccc(OCC)c2O)c1O` to `COc1ccccc1C[C@@H]1OC2(C=CC(=O)CC2SC(=O)c2ccccc2)O[C@H]1Cc1ccccc1OC` (some centres not stated), the TGI falls from 8.16 µM to 4.93 µM (1.7-fold).

Going from `Cc1c2c(cc3c1C(=O)C(=O)C([C@@H](C)CO)=C3O)C(C)(C)CCC2` to `CC(C)CCCC(C)[C@H]1CC[C@H]2n3c(nnc3-c3ccccc3)CCC[C@]12C` (some centres not stated), the TGI falls from over 100 µM to 25.2 µM.

`C[N+]12CCCCC1C(COc1cccc3cccnc13)CCC2` (configuration not stated) and `COc1ccc(CC2Cc3ccccc3CCN2)cc1OC` (configuration not stated) cannot be ordered by TGI: over 100 µM for the first, over 50 µM for the second.

First: Cc1ccc(S(=O)(=O)NC(=O)NCc2ccc(S(N)(=O)=O)cc2)cc1
Second: CC1=NN(c2cccc(S(=O)(=O)O)c2)C2(C1)C(Cl)C(=O)N2c1nc2ccccc2s1 (configuration not stated)
The TGI of the first is higher: over 100 µM for the first, 9.26 µM for the second.

`NC(=O)NC1NC(=O)NC1=O` (configuration not stated) and `NC(CSS(=O)(=O)O)=NC1CC2CCC1C2` (configuration not stated) cannot be ordered by TGI: over 100 µM for the first, over 100 µM for the second.

Going from `CC[C@@]1(O)C(=O)OCc2c1cc1n(c2=O)Cc2c-1nc1ccccc1c2/C=N\NC(=O)C[n+]1ccccc1` to `CN1CCC23c4c5ccc(Oc6nnnn6-c6ccccc6)c4OC2c2[nH]c4ccccc4c2CC3(O)C1C5` (configuration not stated), the TGI falls from over 79.4 µM to 22.5 µM.

First: CN(C)CCn1c(=O)c2ccc(NCCNCCO)c3c(=O)c4ccccc4n(c1=O)c23
Second: OC1=C2c3ccccc3NC2Oc2cc(F)ccc21 (configuration not stated)
The TGI of the first is 4.9-fold lower: 5.66 µM for the first, 27.9 µM for the second.

Going from `OCC1OC(NC(=S)NCCC(F)(F)C(F)(F)C(F)(F)C(F)(F)C(F)(F)C(F)(F)F)C(O)C(O)C1O` (configuration not stated) to `O=C(CC(O)(C(F)(F)F)C(F)(F)F)C(c1ccccc1)C(O)(C(F)(F)F)C(F)(F)F` (configuration not stated), the TGI falls from over 100 µM to 83.4 µM.

First: CSC1=N/C(=C\c2ccc(C)cc2)C(=O)N1
Second: Cc1cccc(N/C(=C(/C(Cl)=C(Cl)Cl)[N+](=O)[O-])n2nnc3ccccc32)c1
The TGI of the first is higher: over 100 µM for the first, 35.5 µM for the second.

`COc1cc2c(cc1OCCCNC(=O)c1cc3ccccc3[nH]1)N=C[C@@H]1CCCN1C2=O` and `CC1=CC[C@H](C[C@H](C#CCCCC2OCCO2)O[Si](C(C)C)(C(C)C)C(C)C)C(=O)CC1` cannot be ordered by TGI: over 100 µM for the first, over 100 µM for the second.

`COC(=O)/C(C)=N/NC(=S)SC` and `C[C@]12CCC(O)CC1=CC[C@@H]1[C@@H]2CC[C@]2(C)C(O)[C@H](n3ccnc3)C[C@@H]12` (some centres not stated) cannot be ordered by TGI: over 100 µM for the first, over 100 µM for the second.

With `Cc1cn(C2OC(CO[Si](C)(C)C(C)(C)C)/C(=C\C#N)C2O[Si](C)(C)C(C)(C)C)c(=O)[nH]c1=O` (configuration not stated) the TGI was over 100 µM.

The compounds below were run on RPMI-8226 leukemia (assay: NCI anticancer screen, dose series, 48 h).

Compared with `CCOc1cccc(C=Nc2ccccc2SSc2ccccc2N=Cc2cccc(OCC)c2O)c1O`, `COc1ccccc1C[C@@H]1OC2(C=CC(=O)CC2SC(=O)c2ccccc2)O[C@H]1Cc1ccccc1OC` (some centres not stated) is 38-fold lower in TGI: 35.9 µM for the first, 0.943 µM for the second.

`Cc1c2c(cc3c1C(=O)C(=O)C([C@@H](C)CO)=C3O)C(C)(C)CCC2` and `CC[C@@]1(O)C(=O)OCc2c1cc1n(c2=O)Cc2c-1nc1ccccc1c2/C=N\NC(=O)C[n+]1ccccc1` cannot be ordered by TGI: over 100 µM for the first, over 100 µM for the second.

`C[N+]12CCCCC1C(COc1cccc3cccnc13)CCC2` (configuration not stated) and `Cc1ccc(S(=O)(=O)NC(=O)NCc2ccc(S(N)(=O)=O)cc2)cc1` cannot be ordered by TGI: over 100 µM for the first, over 100 µM for the second.

With `NC(=O)NC1NC(=O)NC1=O` (configuration not stated) the TGI was over 100 µM.
